Source: patent publication US8119681B2, “2-[1-phenyl-5-hydroxy or methoxy-4alpha-methyl-hexahydrocyclopenta [ƒ]indazole-5-YL]ethyl phenyl derivatives as glucocorticoid receptor ligands” (Merck Sharp & Dohme Corp., priority 2006, dated 2012)

The compounds below were run against T1, human GR (Homo sapiens, UniProt P04150) (assay: Transrepression Assay (GITAR), TNFα-β-lactamase reporter gene in U937 cells). Conditions: U-937; 100 nM dexamethasone = 100% activity; read-out: maximal activity in the transrepression assay.
T1 sequence (P04150 1-777): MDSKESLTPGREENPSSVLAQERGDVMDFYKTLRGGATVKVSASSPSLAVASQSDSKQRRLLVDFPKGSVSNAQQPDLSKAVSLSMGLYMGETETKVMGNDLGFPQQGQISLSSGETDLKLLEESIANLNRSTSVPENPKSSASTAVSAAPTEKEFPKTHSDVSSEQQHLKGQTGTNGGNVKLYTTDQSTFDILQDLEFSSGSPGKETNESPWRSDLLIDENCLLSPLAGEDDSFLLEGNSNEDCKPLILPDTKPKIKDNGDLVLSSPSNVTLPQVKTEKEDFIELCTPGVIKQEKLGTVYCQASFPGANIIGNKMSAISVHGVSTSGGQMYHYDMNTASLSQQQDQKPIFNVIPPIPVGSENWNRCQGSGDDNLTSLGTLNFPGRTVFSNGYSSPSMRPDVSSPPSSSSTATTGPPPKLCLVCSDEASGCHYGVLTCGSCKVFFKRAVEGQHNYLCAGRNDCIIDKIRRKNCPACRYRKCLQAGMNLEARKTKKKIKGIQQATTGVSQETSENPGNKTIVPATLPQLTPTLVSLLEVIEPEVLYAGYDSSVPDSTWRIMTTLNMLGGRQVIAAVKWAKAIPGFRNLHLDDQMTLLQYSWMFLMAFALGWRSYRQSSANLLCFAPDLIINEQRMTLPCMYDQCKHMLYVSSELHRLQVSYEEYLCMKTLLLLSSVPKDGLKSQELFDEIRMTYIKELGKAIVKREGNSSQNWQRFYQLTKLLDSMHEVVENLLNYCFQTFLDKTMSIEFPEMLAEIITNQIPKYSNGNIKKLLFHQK
Assay type: cell-based
Design: U937 cells contain an endogenous glucocorticoid receptor (GR); endogenous in cells; host or cells: U937 cells stably transfected with the TNF-α promoter/β-lactamase reporter only
Excerpt: Transrepression Assay (GITAR)
This assay assesses the ability of test compounds to control transcription from the TNFα-β-lactamase reporter gene in U937 cells, a human myelomonocytic leukemia cell line that naturally expresses the human GR. The assay measures compound dependent-repression of the TNFa promoter linked to a reporter gene.
The human U937 cells that had been stably transfected with the TNF-α promoter driving β-lactamase are used for this assay. U937 cells contain an endogenous glucocorticoid receptor (GR). […] 50,000 cells/well are plated in 96 well black-walled plates the day of assay. Test compounds are added 10 μL/well, and cells are incubated at 37° C. for 30˜45 min. For assaying compounds, first dilute 1:10 in DMSO to make 1 mM, then further dilute 1:100 in medium to make 10× stock prior to adding to the cells. Add 50 ng/ml PMA (Sigma, cat# P8139) 10 μL/well to a final concentration 5 ng/ml, and 1 μg/ml LPS (Sigma, cat# L4130) 10 μL/well to a final concentration 100 ng/ml. Incubate cells at 370 C overnight for ˜18 hr. PMA is stored frozen as 100 μg/ml stock in DMSO. Dilute 1:10 in DMSO for a working stock of 10 μg/ml and store at −20 C. For assaying, dilute the 10 μg/ml working stock 1:200 in medium to make a 10× solution (50 ng/ml). Store frozen LPS at 1 mg/ml in PBS, dilute 1:1000 in medium to make 10× (1 μg/ml) for the assay. Add 6× loading buffer (CCF2-AM) 20 μL/well, and incubate at room temperature for 70˜90 min. […] The activity repressed by 100 nM dexamethasone alone is set as 100% activity.

Emax, 5 to 100%:
C[C@]12Cc3cnn(-c4ccc(F)cc4)c3C=C1CC[C@@]2(O)CCc1cccc(F)c1CNS(=O)(=O)c1ccccc1F [Example 80, 2-fluoro-N-(2-fluoro-6-{2-[(4αS,5R)-1-(4-fluorophenyl)-5-hydroxy-4α-methyl-1,4,4α,5,6,7-hexahydrocyclopenta[f]indazol-5-yl]ethyl}benzyl)benzenesulfonamide]
C[C@]12Cc3cnn(-c4ccc(F)cc4)c3C=C1CC[C@@]2(O)CCc1cccc(F)c1CNS(=O)(=O)c1cccc(C#N)c1 [Example 81, 3-cyano-N-(2-fluoro-6-{2-[(4αS,5R)-1-(4-fluorophenyl)-5-hydroxy-4α-methyl-1,4,4α,5,6,7-hexahydrocyclopenta[f]indazol-5-yl]ethyl}benzyl)benzenesulfonamide]
C[C@]12Cc3cnn(-c4ccc(F)cc4)c3C=C1CC[C@@]2(O)CCc1cccc(F)c1CNS(=O)(=O)c1cccnc1 [Example 82, N-(2-fluoro-6-{2-[(4αS,5R)-1-(4-fluorophenyl)-5-hydroxy-4α-methyl-1,4,4α,5,6,7-hexahydrocyclopenta[f]indazol-5-yl]ethyl}benzyl)pyridine-3-sulfonamide]
C[C@]12Cc3cnn(-c4ccc(F)cc4)c3C=C1CC[C@@]2(O)CCc1ccccc1CNS(C)(=O)=O [Example 87, N-(2-{2-[(4αS,5R)-1-(4-fluorophenyl)-5-hydroxy-4α-methyl-1,4,4α,5,6,7-hexahydrocyclopenta[f]indazol-5-yl]ethyl}benzyl)methanesulfonamide]
C[C@]12Cc3cnn(-c4ccc(F)cc4)c3C=C1CC[C@@]2(O)CCc1ccccc1CNS(=O)(=O)CC(F)(F)F [Example 90, 2,2,2-trifluoro-N-(2-{2-[(4αS,5R)-1-(4-fluorophenyl)-5-hydroxy-4α-methyl-1,4,4α,5,6,7-hexahydrocyclopenta[f]indazol-5-yl]ethyl}benzyl)ethanesulfonamide]
C[C@]12Cc3cnn(-c4ccc(F)cc4)c3C=C1CC[C@@]2(O)CCc1cccc(F)c1CNS(=O)(=O)c1ccco1 [Example 92, N-(2-fluoro-6-{2-[(4αS,5R)-1-(4-fluorophenyl)-5-hydroxy-4α-methyl-1,4,4α,5,6,7-hexahydrocyclopenta[f]indazol-5-yl]ethyl}benzyl)furan-2-sulfonamide]
Cn1cnc(S(=O)(=O)NCc2c(F)cccc2CC[C@]2(O)CCC3=Cc4c(cnn4-c4ccc(F)cc4)C[C@@]32C)c1 [Example 93, N-(2-fluoro-6-{2-[(4αS,5R)-1-(4-fluorophenyl)-5-hydroxy-4α-methyl-1,4,4α,5,6,7-hexahydrocyclopenta[f]indazol-5-yl]ethyl}benzyl)-1-methyl-1H-imidazole-4-sulfonamide]
C[C@]12Cc3cnn(-c4ccc(F)cc4)c3C=C1CC[C@@]2(O)CCc1cccc(F)c1CNS(=O)(=O)c1ccccc1C#N [Example 94, 2-cyano-N-(2-fluoro-6-{2-[(4αS,5R)-1-(4-fluorophenyl)-5-hydroxy-4α-methyl-1,4,4α,5,6,7-hexahydrocyclopenta[f]indazol-5-yl]ethyl}benzyl)benzenesulfonamide]
C[C@H](NS(=O)(=O)C1CC1)c1ccccc1CC[C@]1(O)CCC2=Cc3c(cnn3-c3ccc(F)cc3)C[C@@]21C [Example 95, N-[(1S)-1-(2-{2-[(4αS,5R)-1-(4-fluorophenyl)-5-hydroxy-4α-methyl-1,4,4α,5,6,7-hexahydrocyclopenta[f]indazol-5-yl]ethyl}phenyl)ethyl]cyclopropanesulfonamide]
C[C@@H](NS(=O)(=O)CC(F)(F)F)c1c(F)cccc1CC[C@]1(O)CCC2=Cc3c(cnn3-c3ccc(F)cc3)C[C@@]21C [Example 96, 2,2,2-trifluoro-N-[(1R)-1-(2-fluoro-6-{2-[(4αS,5R)-1-(4-fluorophenyl)-5-hydroxy-4α-methyl-1,4,4α,5,6,7-hexahydrocyclopenta[f]indazol-5-yl]ethyl}phenyl)ethyl]ethanesulfonamide]
C[C@]12Cc3cnn(-c4ccc(F)cc4)c3C=C1CC[C@@]2(O)CCc1cccc(F)c1CNS(=O)(=O)CS(C)(=O)=O [Example 97, N-(2-fluoro-6-{2-[(4αS,5R)-1-(4-fluorophenyl)-5-hydroxy-4α-methyl-1,4,4α,5,6,7-hexahydrocyclopenta[f]indazol-5-yl]ethyl}benzyl)-1-(methylsulfonyl)methanesulfonamide]
C[C@]12Cc3cnn(-c4ccc(F)cc4)c3C=C1CC[C@@]2(O)CCc1cccc(F)c1CNS(C)(=O)=O [Example 98, N-(2-fluoro-6-{2-[(4αS,5R)-1-(4-fluorophenyl)-5-hydroxy-4α-methyl-1,4,4α,5,6,7-hexahydrocyclopenta[f]indazol-5-yl]ethyl}benzyl)methanesulfonamide]
C[C@H](NS(=O)(=O)CC(F)(F)F)c1c(F)cccc1CC[C@]1(O)CCC2=Cc3c(cnn3-c3ccc(F)cc3)C[C@@]21C [Example 99, 2,2,2-trifluoro-N-[(1S)-1-(2-fluoro-6-{2-[(4αS,5R)-1-(4-fluorophenyl)-5-hydroxy-4α-methyl-1,4,4α,5,6,7-hexahydrocyclopenta[f]indazol-5-yl]ethyl}phenyl)ethyl]ethanesulfonamide]
C[C@]12Cc3cnn(-c4ccc(F)cc4)c3C=C1CC[C@@]2(O)CCc1cccc(F)c1C1(NS(=O)(=O)C2CC2)CC1 [Example 100, N-[1-(2-fluoro-6-{2-[(4αS,5R)-1-(4-fluorophenyl)-5-hydroxy-4α-methyl-1,4,4α,5,6,7-hexahydrocyclopenta[f]indazol-5-yl]ethyl}phenyl)cyclopropyl]cyclopropanesulfonamide]
C[C@]12Cc3cnn(-c4ccc(F)cc4)c3C=C1CC[C@@]2(O)CCc1cccc(F)c1[C@@H](NS(=O)(=O)CC(F)(F)F)C(F)(F)F [Example 101, 2,2,2-trifluoro-N-[(1R)-2,2,2-trifluoro-1-(2-fluoro-6-{2-[(4αS,5R)-1-(4-fluorophenyl)-5-hydroxy-4α-methyl-1,4,4α,5,6,7-hexahydrocyclopenta[f]indazol-5-yl]ethyl}phenyl)ethyl]ethanesulfonamide]
C[C@]12Cc3cnn(-c4ccc(F)cc4)c3C=C1CC[C@@]2(O)CCc1cccc(F)c1C1(NS(=O)(=O)CC(F)(F)F)CC1 [Example 102, 2,2,2-trifluoro-N-[1-(2-fluoro-6-{2-[(4αS,5R)-1-(4-fluorophenyl)-5-hydroxy-4α-methyl-1,4,4α,5,6,7-hexahydrocyclopenta[f]indazol-5-102yl]ethyl}phenyl)cyclopropyl]ethanesulfonamide]
C[C@]12Cc3cnn(-c4ccc(F)cc4)c3C=C1CC[C@@]2(O)CCc1ccccc1CNCC1CC1 [Example 103, (4αS,5R)-5-[2-(2-{[(cyclopropylmethyl}amino]methyl}phenyl)ethyl]-1-(4-fluorophenyl)-4α-methyl-1,4,4α,5,6,7-hexahydrocyclopenta[f]indazol-5-ol]
C[C@]12Cc3cnn(-c4ccc(F)cc4)c3C=C1CC[C@@]2(O)CCc1ccccc1CNCC(F)(F)F [Example 104, (4αS,5R)-1-(4-fluorophenyl)-4α-methyl-5-[2-[2-{[(2,2,2-trifluoroethyl)amino]methyl}phenyl)ethyl]-1,4,4α,5,6,7-hexahydrocyclopenta[f]indazol-5-ol]
CC(=O)NCc1ccccc1CC[C@]1(O)CCC2=Cc3c(cnn3-c3ccc(F)cc3)C[C@@]21C [Example 105, N-(2-{2-[(4αS,5R)-1-(4-fluorophenyl)-5-hydroxy-4α-methyl-1,4,4α,5,6,7-hexahydrocyclopenta[f]indazol-5-yl]ethyl}benzyl)acetamide]
